Consider one substance from patent publication US20170218042A1, “METHODS OF ISOLATING T CELL RECEPTORS HAVING ANTIGENIC SPECIFICITY FOR A CANCER-SPECIFIC MUTATION” (The United State of America, as represented by the …, priority 2014, published 2017).

The experiment relates to 3737-TIL. Briefly: Co-culture of 3737-TIL with TMG-RNA-transfected autologous DCs; flow cytometry for activation markers 4-1BB and OX40. It is filed as cell-based, human. As for the experimental part:
APCs (DCs or B cells) were harvested, washed 1× with PBS, and then resuspended in Opti-MEM (Life Technologies) at 10-30×10^6 cells/ml. IVT RNA (4 μg or 8 μg) was aliquoted to the bottom of a 2 mm gap electroporation cuvette, and 50 μl or 100 μl of APCs were added directly to the cuvette. The final RNA concentration used in electroporations was thus 80 μg/ml. Electroporations were carried out using a BTX-830 square wave electroporator. DCs were electroporated with 150 V, 10 ms, and 1 pulse, and B cells were electroporated with 150 V, 20 ms, and 1 pulse. Transfection efficiencies using these settings were routinely between 70-90% as assessed with GFP RNA (data not shown). All steps were carried out at room temperature. Following electroporation, cells were immediately transferred to polypropylene tubes containing DC- or B-cell media supplemented with the appropriate cytokines. Transfected cells were incubated overnight (12-14 h) at 37° C., 5% CO2. Cells were washed 1× with PBS prior to use in co-culture assays.
When DCs were used as APCs, approximately 3.5×10^4 to 7×10^4 DCs were used per well of a 96-well flat or round-bottom plate. When B cells were used as APCs, approximately 2×10^5 cells were used per well of a 96-well round-bottom plate. In ELISPOT assays, 1×10^3 to 1×10^4 effector T cells were used per well, and in flow cytometry assays, 1×10^5 effector T cells were used per well. T cells were typically thawed and rested in IL-2 containing 50/50 media (3000 IU/ml IL-2) for two days and then washed with PBS (3×) prior to co-culture assays. All co-cultures were performed in the absence of exogenously added cytokines. For all assays, plate-bound OKT3 (0.1 μg/ml or 1 μg/ml) was used as a positive control.
Expression of the T-cell activation markers OX40 and 4-1BB was assessed by flow cytometry at approximately t=22-26 h post-stimulation. Briefly, cells were pelleted, washed with FACS buffer (1×PBS supplemented with 1% FBS and 2 mM EDTA), and then stained with the appropriate antibodies for approximately 30 min, at 4° C. in the dark. Cells were washed at least once with FACS buffer prior to acquisition on a BD FACSCanto II flow cytometer. All data were gated on live (PI negative), single cells.
The TMG constructs were then used as templates for the generation of in vitro transcribed (IVT) RNA. Each of these IVT TMG RNAs was then individually transfected into autologous APCs (DCs) followed by a co-culture with TIL to determine whether any of the processed and presented mutated antigens were recognized by TIL. It was observed that 3737-TIL were reactive to a mutated antigen present in TMG-1, but not TMG-2 or TMG-3 (FIG. 1A). […] Tables 4A and 4B show the percentage of 3737-TIL detected by flow cytometry as having the indicated phenotype following coculture with DCs cultured with the non-specific stimulator OKT3 or DCs transfected with green fluorescent protein (GFP) RNA, or the indicated tandem mini-gene (TMG) construct encoding the various mutations identified by whole-exomic sequencing. Mock-transfected cells were treated with transfection reagent only without addition of nucleic acid. Data were gated on live CD3+ cells.
3737-TIL were co-cultured with DCs transfected with TMG-1 or TMG-1 encoding the wild-type (wt) ERBB2IP reversion, and flow cytometry was used to assess OX40 and Vβ22 expression on CD4+ T cells at 24 hours post-stimulation. Plate-bound OKT3 stimulation was used as a positive control.
(In general: Flow cytometry measures light scatter and fluorescence of single cells or particles in a stream.)

The mark [1] stands for this setting: 3737-TIL CD4+ T cells, 24 hours post-stimulation.
The mark [2] stands for this setting: percentage of 3737-TIL after co-culture with transfected DCs or OKT3, gated on live CD3+ cells.

As for “OKT3: anti-CD3 antibody, non-specific stimulator, plate-bound positive control”, under setting [1], the “Vβ22+/OX40+” value is listed as 44%, the “Vβ22+/OX40−” value came to 6%, the “Vβ22−/OX40+” value is 31% and the “Vβ22−/OX40−” value was 19%. For the same substance, under setting [2], the “4-1BB+/CD4+” value is given as 32%, the “4-1BB+/CD4−” value is on record as 41%, the “4-1BB−/CD4+” value turned out to be 23% and the “4-1BB−/CD4−” value is recorded as 4%. Further, under setting [2], the “OX40+/CD4+” value is recorded as 45%, the “OX40+/CD4−” value was found to be 6%, the “OX40−/CD4+” value worked out at 11% and the “OX40−/CD4−” value is listed as 38%.
